The test system of assay [1] is Leishmania donovani axenic amastigote parasites. The assay is described as follows: Leishmania donovani axenic amastigote proliferation assay. Conditions: read-out: L. donovani amastigotes EC50. The class given is cell-based. The gist of the method: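 L. donovani axenic amastigotes (9600/well) in RPMI 1640 with 20% heat-inactivated FBS, folic acid, adenosine, glucose and 25 mM MES, pH 5.5, were incubated with compounds for 2 days at 37 °C, 5% CO2. Viability read by CellTiter-Glo luminescence; EC50 calculated.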

Assay [2] concerns L. donovani HU3 strain in mouse peritoneal macrophages. The assay is described as follows: Assay for proliferation of Leishmania parasites in mouse peritoneal macrophages. The class given is cell-based, Leishmania donovani. Conditions: Leishmania donovani, Peritoneal macrophage. The gist of the method: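 BALB/c peritoneal macrophages infected 24 h with L. donovani HU3 amastigotes taken from spleens of mice infected 9–11 weeks, then treated with compound for 5 days at 37° C, 5% CO2. Parasite nuclei counted by SYBR Green imaging after fixation; EC50 from percentage inhibition.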

Assay [3] relates to Trypanosoma brucei Lister 427 strain bloodstream form. The assay can be described thus: Assay for proliferation of kinetoplastid parasite Trypanosoma brucei. In kind it is cell-based. Conditions: Lister 427 bloodstream form, 48 hours, read-out: T. brucei EC50. The source says:
Assay for Proliferation of Kinetoplastid Parasite Trypanosoma brucei.
The proliferation is quantified by the addition of Cell Titer Glo (Promega®) a luminescent cell viability assay that measures the number of viable cells in culture based on the quantification of cellular ATP amount, which is an indicator of metabolically active cells.
The following assay illustrates the invention without in any way limiting the scope of the invention. This parasite proliferation assay measures the increase in parasite growth using an assay that measures ATP activity, Cell Titer Glo®.
Trypanosoma brucei Lister 427 strain is grown in HMI-9 Trypanosome media for T. brucei bloodstream form. 30 μl of HMI-9 media is dispensed into 384 well assay plates. 200 nl of compounds of the invention (in DMSO), including anti-trypanosome controls (Pentamidine and suramin), are then transferred into the assay plates, as well as DMSO alone to serve as a negative control for inhibition. Then 25 μl of a suspension of T. brucei culture in HMI-9 media is dispensed into the assay plates. The final concentration of parasites in culture corresponds to 1.7% of 0.5 uM ATP activity with Cell Titer Glo® in HMI-9 media. The plates are placed in a 37° C. incubator for 48 hours in an atmospheric environment containing 5% CO2. 40 μl of Cell Titer Glo® is dispensed into the plates. The plates are then read for luminescence. The percentage inhibition of 50%, EC50, is calculated for each compound.

The mark [4] stands for this setting: read-out: L. donavani Macrophage EC50.
Setting [5] is: read-out: L. donavani Macrophage EC50 (μM).

Read-outs that look alike come from different tables or passages of the source.

We go through 33 compounds from patent publication US9233961B2, “Compounds and compositions for the treatment of parasitic diseases” (Novartis AG, priority 2013, dated 2016).

The term EC50 denotes the concentration at which the effect is half-maximal. Consider `O=C(Nc1ccc(Cl)c(-c2nc3ncc(-c4ccc(OCCN5CCOCC5)nc4)cc3[nH]2)c1)c1ccco1` [Compound 11], for which the EC50 came out at 550 nM in assay [1] (axenic amastigotes in vitro), 0.46 µM in assay [2] (setting [4]) and 6.4 nM in assay [3].

`N#Cc1ccc(-c2cnc3nc(-c4cc(NC(=O)c5ccco5)ccc4Cl)[nH]c3c2)cc1` [Compound 20]: the EC50 in assay [1] (axenic amastigotes in vitro) came out at 239 nM; in assay [2] (setting [4]) it was 1.78 µM; in assay [3] it was 54 nM.

As for `O=C(Nc1ccc(Cl)c(-c2nc3ncc(-c4ccc(OCCN5CCCCC5)cc4)cc3[nH]2)c1)c1ccco1` [Compound 21], the values for the EC50 in assay [1] (axenic amastigotes in vitro), in assay [2] (setting [4]) and in assay [3] were 16000 nM, 2.8 µM and 63 nM, respectively.

On to `COc1cc(-c2cnc3nc(-c4cc(NC(=O)c5ccco5)ccc4Cl)[nH]c3c2)ccc1NC(=O)OC(C)(C)C` [Compound 34], for which the figures for the concentration for a half-maximal effect (EC50) in assay [1] (axenic amastigotes in vitro), in assay [2] (setting [4]) and in assay [3] were 600 nM, 1.79 µM and 105 nM, respectively.

For `O=C(Nc1ccc(Cl)c(-c2nc3ncc(-c4ccc(OCC5CC5)cc4)cc3[nH]2)c1)c1ccco1` [Compound 36], the EC50 in assay [1] (axenic amastigotes in vitro) is 1030 nM; in assay [2] (setting [4]), 2.27 µM; in assay [3] it was 188 nM.

Regarding `O=C1Cc2cc(-c3cnc4nc(-c5cc(NC(=O)c6ccco6)ccc5Cl)[nH]c4c3)ccc2N1` [Compound 43], the concentration for a half-maximal effect (EC50) in assay [1] (axenic amastigotes in vitro) came out at 730 nM; in assay [2] (setting [4]) it was 6.9 µM; in assay [3] it was 21.6 nM.

As for `CS(=O)(=O)c1ccc(-c2cnc3nc(-c4cc(NC(=O)c5ccco5)ccc4Cl)[nH]c3c2)cc1` [Compound 46], the concentration giving a half-maximal response (EC50) is 500 nM in assay [1] (axenic amastigotes in vitro), 1.33 µM in assay [2] (setting [4]) and 37 nM in assay [3].

Regarding `COc1ccc(-c2cnc3nc(-c4cc(NC(=O)c5ccco5)ccc4Cl)[nH]c3c2)cc1Cl` [Compound 48], the EC50 in assay [1] (axenic amastigotes in vitro) amounted to 530 nM; in assay [2] (setting [4]) it was 8 µM; in assay [3], 76 nM.

With `COc1ccc(-c2cnc3nc(-c4cc(NC(=O)c5ccco5)ccc4Cl)[nH]c3c2)cc1S(=O)(=O)N1CCCC1` [Compound 49], the concentration for a half-maximal effect (EC50) in assay [1] (axenic amastigotes in vitro) stood at 440 nM; in assay [2] (setting [4]) it was 1.05 µM; in assay [3] it was 6.7 nM.

In the case of `O=C(Nc1ccc(Cl)c(-c2nc3ncc(-c4ccnc(F)c4)cc3[nH]2)c1)c1ccco1` [Compound 51], the 50% effective concentration (EC50) in assay [1] (axenic amastigotes in vitro) worked out at 175 nM; in assay [2] (setting [4]), 0.56 µM; in assay [3] it was 19.3 nM.

Consider `CN1CCc2cc(-c3cnc4nc(-c5cc(NC(=O)c6ccco6)ccc5Cl)[nH]c4c3)ccc21` [Compound 59], for which the EC50 is 1340 nM in assay [1] (axenic amastigotes in vitro), 3.7 µM in assay [2] (setting [4]) and 143 nM in assay [3].

As to `COc1ccc(-c2cnc3nc(-c4cc(NC(=O)c5ccco5)ccc4Cl)[nH]c3c2)c(OC)n1` [Compound 61], the concentration giving a half-maximal response (EC50) in assay [1] (axenic amastigotes in vitro) came out at 1130 nM; in assay [2] (setting [4]), 3.2 µM; in assay [3], 182 nM.

Turning to `CC(C)N1CCN(c2ccc(-c3cnc4nc(-c5cc(NC(=O)c6ccco6)ccc5Cl)[nH]c4c3)cc2)CC1` [Compound 62], the half-maximal effective concentration (EC50) amounted to 19200 nM in assay [1] (axenic amastigotes in vitro), 9.4 µM in assay [2] (setting [4]) and 520 nM in assay [3].

As for `CN(C)CCOc1ccc(-c2cnc3nc(-c4cc(NC(=O)c5ccco5)ccc4Cl)[nH]c3c2)cc1` [Compound 69], the EC50 in assay [1] (axenic amastigotes in vitro) amounted to 18100 nM; in assay [2] (setting [4]), 2.74 µM; in assay [3], 100 nM.

As to `CN1CCOc2cc(-c3cnc4nc(-c5cc(NC(=O)c6ccco6)ccc5Cl)[nH]c4c3)ccc21` [Compound 72], the EC50 in assay [1] (axenic amastigotes in vitro) is 670 nM; in assay [2] (setting [4]) it was 3.2 µM; in assay [3], 73 nM.

As to `Cc1cnc2nc(-c3cc(NC(=O)c4cc(C)on4)ccc3Cl)[nH]c2c1` [Compound 79], the concentration for a half-maximal effect (EC50) in assay [1] (axenic amastigotes in vitro) is greater than 25000 nM; in assay [2] (setting [4]) it was greater than 50 µM; in assay [3], 12500 nM.

Consider `Cc1cnc2nc(-c3cc(NC(=O)c4nc(C)cs4)ccc3Cl)[nH]c2c1` [Compound 80], for which the results for the EC50 in assay [1] (axenic amastigotes in vitro), in assay [2] (setting [4]) and in assay [3] were 5900 nM, 18.5 µM and 610 nM, respectively.

Turning to `Cc1cnc2nc(-c3cc(NC(=O)C(C)(C)c4ccc(Cl)cc4)ccc3Cl)[nH]c2c1` [Compound 81], the results for the EC50 in assay [1] (axenic amastigotes in vitro), in assay [2] (setting [4]) and in assay [3] were greater than 25000 nM, 16.9 µM and 10800 nM, respectively.

On to `Cc1cnc2nc(-c3cc(NC(=O)Cc4ccc(N(C)C)cc4)ccc3Cl)[nH]c2c1` [Compound 82], for which the 50% effective concentration (EC50) is greater than 25000 nM in assay [1] (axenic amastigotes in vitro), greater than 38.5 µM in assay [2] (setting [4]) and greater than 14100 nM in assay [3].

As for `Cc1cnc2nc(-c3cc(NC(=O)Cc4c(F)cccc4F)ccc3Cl)[nH]c2c1` [Compound 87], the values for the concentration giving a half-maximal response (EC50) in assay [1] (axenic amastigotes in vitro), in assay [2] (setting [4]) and in assay [3] were greater than 25000 nM, 24.4 µM and greater than 6900 nM, respectively.

For `CN(C)Cc1ccc(C(=O)Nc2ccc(Cl)c(-c3nc4ncc(Br)cc4[nH]3)c2)o1` [Example 372, N-(3-{6-bromo-1H-imidazo[4,5-b]pyridin-2-yl}-4-chlorophenyl)-5-[(dimethylamino)methyl]furan-2-carboxamide], the EC50 in assay [1] (axenic amastigotes in vitro) is greater than 25000 nM; in assay [2] (setting [4]) it was 2.52 µM.

`Cc1ccc(C(=O)Nc2ccc(F)c(-c3nc4ncc(-c5ccccc5)cc4[nH]3)c2)o1` [Example 380, N-(4-fluoro-3-{6-phenyl-1H-imidazo[4,5-b]pyridin-2-yl}phenyl)-5-methylfuran-2-carboxamide]: the concentration giving a half-maximal response (EC50) in assay [1] (axenic amastigotes in vitro) is 5700 nM; in assay [2] (setting [4]) it was 3.3 µM.

Consider `Cc1ccc(C(=O)Nc2ccc(F)c(-c3nc4ncc(-c5ccsc5)cc4[nH]3)c2)o1` [Example 381, N-{4-fluoro-3-[6-(thiophen-3-yl)-1H-imidazo[4,5-b]pyridin-2-yl]phenyl}-5-methylfuran-2-carboxamide], for which the EC50 in assay [1] (axenic amastigotes in vitro) turned out to be 2500 nM; in assay [2] (setting [4]), 1.6 µM.

Regarding `COCn1c(-c2cc(NC(=O)N3CCCC3)ccc2Cl)nc2cc(Br)cnc21` [Example 385, N-{3-[6-bromo-3-(methoxymethyl)-3H-imidazo[4,5-b]pyridin-2-yl]-4-chlorophenyl}pyrrolidine-1-carboxamide], the concentration for a half-maximal effect (EC50) in assay [1] is greater than 23200 nM; in assay [2] (setting [4]), greater than 10.9 µM.

`COCn1c(-c2cc(NC(=O)N3CCCC3)ccc2Cl)nc2ncc(Br)cc21` [Example 386]: the 50% effective concentration (EC50) in assay [1] (axenic amastigotes in vitro) turned out to be 4300 nM; in assay [2] (setting [4]), 4.3 µM.

With `O=C(Nc1ccc(C(F)(F)F)cc1)Nc1ccc(F)c(-c2nc3ncc(-c4ccc(CCN5CCOCC5)cc4)cc3o2)c1` [Example 389, 3-[4-Fluoro-3-(6-{4-[2-(morpholin-4-yl)ethyl]phenyl}-[3]oxazolo[4,5-b]pyridin-2-yl)phenyl]-1-[4-(trifluoromethyl)phenyl]urea], the EC50 stood at 11600 nM in assay [1] (axenic amastigotes in vitro) and 11.4 µM in assay [2] (setting [4]).

Turning to `CCc1nnc(C(=O)Nc2ccc(F)c(-c3nc4ncc(Br)cc4o3)c2)o1` [Example 404, N-(3-{6-bromo-[1,3]oxazolo[4,5-b]pyridin-2-yl}-4-fluorophenyl)-5-ethyl-1,3,4-oxadiazole-2-carboxamide], the half-maximal effective concentration (EC50) was greater than 25000 nM in assay [1] (axenic amastigotes in vitro) and greater than 50 µM in assay [2] (setting [4]).

On to `O=C(Nc1ccc(F)c(-c2nc3ncc(-c4ccccc4)cc3o2)c1)N1CCCC1` [Example 415, N-(4-fluoro-3-{6-phenyl-[1,3]oxazolo[4,5-b]pyridin-2-yl}phenyl)pyrrolidine-1-carboxamide], for which the EC50 turned out to be 400 nM in assay [1] (axenic amastigotes in vitro) and 0.1 µM in assay [2] (setting [5]).

As to `O=C(Nc1ccc(Cl)c(-c2nc3ncc(-c4ccccc4)cc3o2)c1)c1ccco1` [Example 416, N-(4-chloro-3-{6-phenyl-[1,3]oxazolo[4,5-b]pyridin-2-yl}phenyl)-furan-2-carboxamide], the EC50 in assay [1] (axenic amastigotes in vitro) turned out to be 1520 nM; in assay [2] (setting [5]) it was 2.9 µM.

For `Cc1cnc2nc(-c3cc(NC(=O)c4ccco4)ccc3Cl)oc2c1` [Example 418, N-(4-chloro-3-{6-methyl-[1,3]oxazolo[4,5-b]pyridin-2-yl}phenyl)-furan-2-carboxamide], the concentration giving a half-maximal response (EC50) in assay [1] (axenic amastigotes in vitro) turned out to be 1510 nM; in assay [2] (setting [5]), 8.4 µM.

Turning to `CCc1cnc2nc(-c3cc(NC(=O)c4ccco4)ccc3Cl)oc2c1` [Example 419, N-(4-chloro-3-{6-ethyl-[1,3]oxazolo[4,5-b]pyridin-2-yl}phenyl)-furan-2-carboxamide], the concentration for a half-maximal effect (EC50) was 360 nM in assay [1] (axenic amastigotes in vitro) and 2.46 µM in assay [2] (setting [5]).

Consider `CN(C)c1ccc(F)c(-c2nc3ncc(-c4ccc(OCCN5CCOCC5)cc4)cc3o2)c1` [Example 420, 4-Fluoro-N,N-dimethyl-3-(6-{4-[2-(morpholin-4-yl)ethoxy]phenyl}-[1,3]oxazolo[4,5-b]pyridin-2-yl)aniline], for which the EC50 in assay [1] (axenic amastigotes in vitro) was greater than 25000 nM; in assay [2] (setting [5]), greater than 50 µM.

Consider `CNc1ccc(F)c(-c2nc3ncc(-c4ccc(OCCN5CCOCC5)cc4)cc3o2)c1` [Example 421, 4-Fluoro-N-methyl-3-(6-{4-[2-(morpholin-4-yl)ethoxy]phenyl}-[1,3]oxazolo[4,5-b]pyridin-2-yl)aniline], for which the values for the EC50 in assay [1] (axenic amastigotes in vitro) and in assay [2] (setting [5]) were greater than 25000 nM and greater than 50 µM, respectively.
